Data from ChEMBL document CHEMBL3232812, “In-vitro anti-proliferative and anti-oxidant activity of galangin, fisetin and quercetin: role of localization and intermolecular interaction in model membrane” (Eur J Med Chem, 2014).
Values after ≈ are worked out from the molar mass of the structure shown. Active and inactive are the calls of the source. The calls are words filed in the database; no cut-off is given here.

What was measured:
[1] = Binding affinity DPPC multilamellar vesicles assessed as main transition temperature at 1:10 compound/lipid ratio after 2 hrs by differential scanning calorimetry method (reference value: 41.98 degC)
MCF7 = experiment: Antiproliferative activity against human MCF7 cells assessed as cell growth at 10^-4 ug/ml after 48 hrs by SRB assay relative to control; format: functional; conditions: MCF7, 48 h, read-out: Activity
[2] = Binding affinity DPPC multilamellar vesicles after 2 hrs by centrifugation method; format: physicochemical
[3] = test system: Radical scavenging activity; experiment: Antioxidant activity assessed as DPPH radical scavenging activity after 30 mins; format: functional
[4] = Binding affinity DPPC multilamellar vesicles assessed as main transition temperature at 1:5 compound/lipid ratio after 2 hrs by differential scanning calorimetry method (reference value: 41.98 degC)
[5] = Binding affinity DPPC multilamellar vesicles assessed as pre-transition temperature at 1:20 compound/lipid ratio after 2 hrs by differential scanning calorimetry method (reference value: 34.10 degC)
[6] = Binding affinity DPPC multilamellar vesicles assessed as chemical shift at 1:5 compound/lipid ratio at 323 K by nuclear magnetic resonance analysis
[7] = Binding affinity DPPC multilamellar vesicles assessed as chemical shift at 1:5 compound/lipid ratio at 333 K by nuclear magnetic resonance analysis
[8] = Binding affinity DPPC multilamellar vesicles assessed as chemical shift at 1:5 compound/lipid ratio at 303 K by nuclear magnetic resonance analysis
[9] = Binding affinity to 0.5 mg/ml of DPPC multilamellar vesicles at 100 uM after 2 hrs by centrifugation method; format: physicochemical
[10] = Binding affinity DPPC multilamellar vesicles assessed as main transition temperature at 1:2 compound/lipid ratio after 2 hrs by differential scanning calorimetry method (reference value: 41.98 degC)
HepG2 = experiment: Antiproliferative activity against human HepG2 cells assessed as cell growth at 10^-4 ug/ml after 48 hrs by SRB assay relative to control; format: functional; conditions: HepG2, 48 h, read-out: Activity
[11] = Binding affinity DPPC multilamellar vesicles assessed as pre-transition temperature at 1:10 compound/lipid ratio after 2 hrs by differential scanning calorimetry method (reference value: 34.10 degC)
K562 = experiment: Antiproliferative activity against human K562 cells assessed as cell growth at 10^-4 ug/ml after 48 hrs by SRB assay relative to control; format: functional; conditions: K562, 48 h, read-out: Activity
[12] = Binding affinity DPPC multilamellar vesicles assessed as main transition temperature at 1:20 compound/lipid ratio after 2 hrs by differential scanning calorimetry method (reference value: 41.98 degC)

In the case of `O=c1c(O)c(-c2ccc(O)c(O)c2)oc2cc(O)ccc12` [FISETIN], the T [1] is reported as 39.3 °C, the growth at 0.0001 µg/mL (MCF7) is reported as 47.1% and the Kapp [2] is reported as 10438 M⁻¹. The IC50 [3] was 9.26 µg/mL (≈ 32.4 µM), the T [4] was 38.3 °C and the T [5] was 30.1 °C. For the same compound, the Activity [6] was “Active”, the Activity [7] was “Active” and the Activity [8] was “Active”. It also gave an Activity [9] of 60%, a T [10] of 39.2 °C and a growth at 0.0001 µg/mL (HepG2) of 62.8%. The T [11] was 26.2 °C, the growth at 0.0001 µg/mL (K562) was 33.7% and the T [12] was 40.8 °C.

Work on `O=c1c(O)c(-c2ccccc2)oc2cc(O)cc(O)c12` [GALANGIN] yielded a T [1] of 37.9 °C, a growth at 0.0001 µg/mL (MCF7) of 68.2% and a Kapp [2] of 16701 M⁻¹. The IC50 [3] was 11.4 µg/mL (≈ 42.2 µM), the T [4] was 37.6 °C and the Activity [6] was “Active”. For the same compound, the Activity [7] was “Active”, the Activity [8] was “Active” and the Activity [9] was 60%. For the same compound, the T [10] was 36.5 °C, the growth at 0.0001 µg/mL (HepG2) was 23.7% and the growth at 0.0001 µg/mL (K562) was 74.8%. The T [12] was 38.7 °C.

For `O=c1c(O)c(-c2ccc(O)c(O)c2)oc2cc(O)cc(O)c12` [QUERCETIN], the T [1] was 39.7 °C, the growth at 0.0001 µg/mL (MCF7) was 8.3% and the Kapp [2] was 10710 M⁻¹. For the same compound, the IC50 [3] was 9.14 µg/mL (≈ 30.2 µM), the T [4] was 39.6 °C and the Activity [6] was “Active”. The Activity [7] was “Active”, the Activity [8] was “Active” and the Activity [9] was 60%. For the same compound, the T [10] was 41 °C, the growth at 0.0001 µg/mL (HepG2) was -5.4% and the growth at 0.0001 µg/mL (K562) was 12.4%. The T [12] was 40.2 °C.
